In US12102639B2, “Imipridones for gliomas” (Oncoceutics, Inc., priority 2017, dated 2024):
Entries after “also recorded” stand apart in the source; their conditions may differ.

Legend:
[1] = system: MV411 (AML); test: Cell viability of MV411 AML cells
[2] = system: normal cells (MRC5 lung fibroblasts, Hs27a bone marrow cells); test: In vitro toxicity to normal cells; type: cell-based
[3] = system: leukemia cell lines; test: Leukemia cell lines; type: cell-based; details: 55 leukemia cell lines (FIG. 11, 12)
[4] = system: MV411 AML cells; test: MV411 AML xenograft model
[5] = system: HCT116 cells; test: Anticancer efficacy in HCT116 cells; type: cell-based, human; details: HCT116, nanomolar concentrations (FIG. 8)
[6] = system: integrated stress response, Akt/ERK phosphorylation; test: Integrated stress response and Akt/ERK phosphorylation; type: cell-based; details: earlier time points compared to ONC201 (FIG. 9)
[7] = system: NCI60 cancer cell line panel; test: NCI60 cancer cell line panel; type: cell-based; details: NCI60 panel (FIG. 4)
[8] = system: human cancer cells; test: Viability of human cancer cells at 72 hours post-treatment; type: cell-based; details: relative to the potency of ONC201; viability at 72 hours post-treatment
Protocol: A number of imipridones were prepared based on the syntheses above. Viability of human cancer cells was measured at 72 hours post-treatment with each compound.

[9] = system: MOLM14 (AML); test: Cell viability of MOLM14 AML cells; details: Homo sapiens, MOLM-14, 72 h
[10] = system: acute myeloid leukemia (AML) cell lines; test: AML cell lines, in vitro efficacy
[11] = system: human colon cancer xenograft; test: Human colon cancer xenograft-bearing mice; type: in vivo; details: xenograft mouse models of colorectal and breast cancer (FIG. 10)

## O=C1C2=C(CCN(Cc3ccccc3)C2)N2CCN=C2N1Cc1ccc(C(F)(F)F)cc1 [ONC212]
[1]; Homo sapiens, MV4-11, 72 h
  IC50: 0.01 µM
[1]; MV411, 5 nM-5 μM, 24 h (FIG. 14A)
  efficacy in AML cells resistant to cytarabine: efficacious
[2]
  in vitro toxicity to normal cells: but not normal cells (MRC5); also recorded: non-toxic to normal cells at efficacious concentrations
[3]
  anti-cancer efficacy: more responsive to ONC212 than ONC201; also recorded: nanomolar range in 55 leukemia cell lines
[4]; 50 mg/kg, oral weekly administration (ONC201 at similar doses)
  leukemia xenograft tumor growth: significantly reduced leukemia xenograft tumor growth
[4]; biweekly dosing with 25 mg/kg
  leukemia xenograft tumor growth: not efficacious
[4]; weekly/biweekly dosing with 5 mg/kg
  leukemia xenograft tumor growth: not efficacious
[5]
  cell death: induced cell death
[6]
  integrated stress response and Akt/ERK phosphorylation: induces the integrated stress response and inhibits Akt/ERK phosphorylation at nanomolar concentrations
[7]
  anti-cancer efficacy: demonstrated anti-cancer efficacy across various tumor types
[8]
  Relative Potency: A (A Indicates a potency increase of >2-fold of ONC201)
[9]
  IC50: 0.01 µM
[10]; 250 nM, MOLM14 and MV411 AML cells, viability at 96 h
  cell viability after 8 hr exposure: robust reduction in cell viability
[10]; AML cell lines, Table 4
  potency compared to ONC201: up to 400 fold
[11]
  anti-cancer efficacy: oral and IP anti-cancer efficacy
